Measurements reported in patent US20130059787A1, “METHODS OF USING HUMAN PROTEIN KINASE C DELTA VIII AS A BIOMARKER” (UNITED STATES DEPARTMENT OF VETERAN AFFAIRS, priority 2010, published 2013).

Assays:
[1] = test system: SR proteins; assay: Western blot of NT2 whole cell lysates with mAb104 antibody; format: cell-based, human; details: RA about 10 μM, about 24 h; NT2 cells
Procedure: FIG. 6 is a series of images illustrating the detection of SR proteins involved in RA-mediated PKXδVIII expression. NT2 cells were treated with RA (about 10 μM) for about 24 h or without RA (control), and Western blot analysis was performed on whole cell lysates using (a) mAb104 antibody that detects all SR proteins and (b) specific antibodies as indicated in the figure. Molecular masses are indicated (kDa).
Cell lysates (about 40 μg) were separated on 10% SDS-PAGE. […] In apoptotic cells, PARP is cleaved by caspase 3 into an 85 kDa fragment which is detected in addition to the 116 KDa fragment using anti-PARP antibody in western blot analysis. […] (Putt K S, Beilman G J, and H. P J., Direct quantitation of poly(ADP-ribose) polymerase (PARP) activity as a means to distinguish necrotic and apoptotic death in cell and tissue samples. Chembiochem, 2005. 6: p. 53-55)
(SR) proteins that bind to exonic or intronic splicing enhancers (ESE, ISE) on the pre-mRNA. […] NT2 cells were treated with or without RA (about 24 h), and whole cell lysates were analyzed by Western blot analysis using mAb104 antibody that simultaneously detects the phosphoepitopes on all SR proteins. […]

[2] = test system: 5′ splice site II of PKCδ exon 10; assay: pSPL3_PKCδ splicing minigene in NT2 cells, RT-PCR; format: cell-based, human; details: RA about 10 μM, 24 h
Procedure: (a) schematic represents PKCδ pre-mRNA exon 10 and flanking introns cloned into pSPL3 splicing vector between the SD and SA exons. The resulting minigene is referred to as pSPL3_PKCδ minigene. Arrows indicate position of primers used in RT-PCR analysis. (b) pSPL3_PKCδ minigene and pSPL3 empty vector were transfected overnight, and then the cells were treated with or without about 10 μM RA for about 24 h. Total RNA was extracted and RT-PCR performed using primers as described above. Expected products are SD-SA: constitutive splicing; SSI: usage of 5′ splice site I; SSII: usage of 5′ splice site II. (c) About 2 μg of SC35 or SF2/ASF was co-transfected along with the pSPL3_PKCδ splicing minigene. […] Graphs represent percent exon inclusion calculated as SS II/(SS II+SSI)×100 in the samples and are representative of four experiments performed separately. […]
Splicing minigenes are advantageous to identify cis-elements on the pre-mRNA involved in regulated alternative splicing. […] Since the human PKCδ splice variants used alternative 5′ splice sites as determined previously, exon 10 of PKCδ pre-mRNA along with its flanking 3′ and 5′ intronic sequences was cloned (as described under “Experimental Procedures”) in the multiple cloning site (MCS) between the splice donor (SD) and splice acceptor (SA) exons of pSPL3, a vector developed to study splicing events (schematic shown in FIG. 10a). […]

For `CC1=C(/C=C/C(C)=C/C=C/C(C)=C/C(=O)O)C(C)(C)CCC1` [RA, all-trans-retinoic acid], the “SR protein at ~30 kDa expression (mAb104)” value [1] was “increased in expression” and the “utilization of 5′ splice site II of PKCδ exon 10 in pSPL3_PKCδ minigene” value [2] was “increased utilization”.
